# Measured values from patent US10682371B2, “Small molecule conjugates specifically activated in tumor microenvironment for targeting and use thereof” (priority 2014, dated 2020).
# Like-named read-outs stand apart in the source and are kept apart here.
# What was measured:
# [1] = Multiple tumor models in nude mice: HT1080; assay type: in vivo; settings: Human colon caner HT1080
# Method: (§1) 1) Corresponding tumor cells were purchased from American type culture collection (ATCC) and identified according the specification provided by ATCC. Cells were cultivated in DMEM culture solution containing 10% fetal bovine serum at 37° C. and 5% CO2. The cells were passaged for every three days and cells within the 15th passage were used.
# (§2) 2) Production of tumor. 5×10^6 corresponding cells were subcutaneously injected to the back of the nude mice. Mice were randomly grouped after the tumor reached at least 100 mm^3. Then treatment began and the day on which the treatment began was day 1.
# (§3) 3) Course of treatment. […] The control group was administered by physiological saline. Animals were administered once weekly for three weeks.
# (§4) 3) Course of treatment. According to the clinical application of A1, A1 was administered in a dose of ⅙ MTD, i.v., 17.6 μmol/kg. The control group was administered by physiological saline. Animals were administered once weekly for three weeks.
# (§5) 3) Course of treatment. According to the clinical application of B1, B1 was administered in a dose of ⅙ MTD, i.v., 17.6 μmol/kg. The control group was administered by physiological saline. Animals were administered once weekly for three weeks.
# as §3, §3
# Human heart = assay type: biochemical; settings: Human heart, 1 mg/ml
# 4T1 cells = experiment: BALB/C mice model for tumor metastasis (4T1, lung metastases); assay type: in vivo; settings: for Inhibitory rate on metastasis / Number of metastasized tumor: IV every three days for 4 times, Paclitaxel 4 mg/kg; for Inhibitory effect on tumor metastasis, in words: compared with parent drug group and control group
# Summary of the method: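 10^6 4T1 cells (DMEM, 10% FBS, within passage 15) injected subcutaneously into the back of BALB/C mice; primary tumor resected at about 1.5 cm, then dosing began. Drugs given IV once every three days, 4 times; saline controls. Lungs removed day 27, Bouin's-stained, metastases counted under anatomical microscope.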
# [2] = Solubility / formulation test in solvent 1 and solvent 2; assay type: physicochemical; settings: for Concentration achieved, completely dissolved in both solvent 1 and solvent 2: solvent 1 injectable water
# tumor tissue homogenates = assay type: biochemical
# Summary of the method: (§6)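 Protease activation of compounds was measured in acidized tissue homogenates at 37° C, using 1 mg/ml compound per 100 μg homogenate.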
# [3] = system: Human fibrosarcoma HT-1080 tumor tissue homogenate; assay type: biochemical; settings: Human fibrosarcoma HT-1080
# Summary of the method: as §6
# Human colon cancer HT-29 = experiment: Multiple tumor models in nude mice: HT-29; assay type: in vivo
# Method: as §1, §2, §3, §4, §5, §3, §3
# [4] = system: Human prostate cancer PC-3 cells / Panc-1 cells; experiment: Tumor treatment in nude mice (PC-3 cells purchased, Panc-1 cells injected; Examples 22, 32, 42); assay type: in vivo; settings: for Inhibition on tumor growth, in words: compared with parent drug group (same molar concentration) and control group; for Size of tumor (mm^3) Day 10 / inhibitory rate on tumor Day 10 / Size of tumor (mm^3) Day 24 / inhibitory rate on tumor Day 24: nude mice, IV once weekly for four weeks, Paclitaxel 8 mg/kg
# Summary of the method: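 Nude mice bearing subcutaneous Panc-1 xenografts (5×10^6 cells on the back) were randomized once tumors reached at least 100 mm^3. Drugs were given intravenously once weekly for four weeks, with saline controls. PC-3 cells were grown in DMEM/10% FBS and used within passage 15.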
# [5] = system: Human pancreatic cancer Panc-1; experiment: Multiple tumor models in nude mice: Panc-1; assay type: in vivo
# Method: as §1, §2, §3, §4, §5, §3, §3
# BALB/C mice = experiment: Maximum tolerated dose (MTD) / acute toxicity by single intravenous injection; settings: for Behaviors and death observed: BALB/C mice receiving 90 mg/kg injection; for MTD (maximum tolerated dose): intravenous injection, one time
# [6] = system: Human non-small cell lung cancer A549; experiment: Multiple tumor models in nude mice: A549; assay type: in vivo
# Method: as §1, §2, §3, §4, §5, §3, §3
# [7] = S1′ i.v. 17.6 μmol/kg once weekly for three weeks
# [8] = 4T1, BALB/C mice, lung, day 27, S1′-S4′ 12 mg/kg
# [9] = Table 29, i.v. 17.6 μmol/kg once weekly for three weeks
# [10] = Table 28, BALB/C mice, 4T1, lung metastases day 27, A1-A4 12 mg/kg
# [11] = single intravenous injection, 125 mg/kg, 10 BALB/C mice per group
# [12] = single intravenous injection, 150 mg/kg, 10 BALB/C mice per group
# [13] = single intravenous injection, 175 mg/kg, 10 BALB/C mice per group
# [14] = single intravenous injection, 200 mg/kg, 10 BALB/C mice per group
structure (smiles),measurement,setting,value
"COCCOCC(=O)N[C@H](C)C(=O)N[C@H](C)C(=O)N[C@H](CC(N)=O)C(=O)Nc1ccc(COC(=O)OC(C(=O)OC2C[C@@]3(O)C(OC(=O)c4ccccc4)[C@@H]4C5(OC(C)=O)COC5C[C@H](O)[C@@]4(C)C(=O)[C@H](OC(C)=O)C(=C2C)C3(C)C)[C@@H](NC(=O)c2ccccc2)c2ccccc2)cc1 (stereo in doubt) [S1′, 2-(2-methoxyethoxy) acetylamino-L-Ala-L-Ala-L-Asn-p-amino-benzyl-paclitaxel]",inhibitory rate on tumor (Day 26),[1]; [7],94.3%
same,Activation ratio (%) in homogenates from different tumor tissues,Human heart; 37°,none
same,Inhibitory rate on metastasis,4T1 cells; [8],99.2%
same,Number of metastasized tumor,4T1 cells; [8],2 ± 3
same,"Inhibitory effect on tumor metastasis, in words",4T1 cells,greatly improved
same,solubility in Solvent 1,"[2]; Solvent 1 injectable water, dissolution concentration 10 mg/ml",soluble
same,solubility in Solvent 2,"[2]; Solvent 2: 50% injectable water, 45%-49% propanediol, 1%-5% Tween80, dissolution concentration 10 mg/ml",soluble
same,"Concentration achieved, completely dissolved in both solvent 1 and solvent 2","[2]; solvent 2 50% injectable water, 42%-49% propanediol, 1%-8% Tween80",10000 µg/mL
same,"Activation efficiency by tumor tissue, in words",tumor tissue homogenates,highest activation efficiency among the screened compounds
same,Activation ratio (%) in homogenates from different tumor tissues,"[3]; 100 μg acidized homogenate pH6.0, 1 mg/ml, 37°",74.7%
same,inhibitory rate on tumor (Day 26),Human colon cancer HT-29; [7],89.7%
same,"Inhibition on tumor growth, in words",[4],greatly improved
same,Size of tumor (mm^3) Day 10,[4]; S1′-S4′ 24 mg/kg,76.42 ± 14.96 mm^3
same,inhibitory rate on tumor Day 10,[4]; S1′-S4′ 24 mg/kg,35.7%
same,Size of tumor (mm^3) Day 24,[4]; S1′-S4′ 24 mg/kg,84.62 ± 45.94 mm^3
same,inhibitory rate on tumor Day 24,[4]; S1′-S4′ 24 mg/kg,66.1%
same,inhibitory rate on tumor (Day 26),[5]; [7],88.59%
same,Behaviors and death observed,BALB/C mice,"no pilo-erection, hair tousle and lackluster, lethargy, stoop, irritable reaction and death"
same,MTD (maximum tolerated dose),BALB/C mice; BALB/C mice,about 90 mg/kg
same,Mortality rate (%),"BALB/C mice; BALB/C mice, single iv, 125 mg/kg",0%
same,Number of dead animal,"BALB/C mice; BALB/C mice, single iv, 125 mg/kg, 10 animals",0
same,Mortality rate (%),"BALB/C mice; BALB/C mice, single iv, 150 mg/kg",0%
same,Number of dead animal,"BALB/C mice; BALB/C mice, single iv, 150 mg/kg, 10 animals",0
same,Mortality rate (%),"BALB/C mice; BALB/C mice, single iv, 175 mg/kg",0%
same,Number of dead animal,"BALB/C mice; BALB/C mice, single iv, 175 mg/kg, 10 animals",0
same,Mortality rate (%),"BALB/C mice; BALB/C mice, single iv, 200 mg/kg",10%
same,Number of dead animal,"BALB/C mice; BALB/C mice, single iv, 200 mg/kg, 10 animals",1
same,inhibitory rate on tumor (Day 26),[6]; [7],94.6%
COCCOCC(=O)NCCCC[C@H](NC(=O)COCCOC)C(=O)N[C@H](C)C(=O)N[C@H](C)C(=O)N[C@H](CC(N)=O)C(=O)Nc1ccc(COC(=O)OC(C(=O)OC2C[C@@]3(O)[C@@H](OC(=O)c4ccccc4)[C@H]4[C@](C)(C(=O)[C@H](OC(C)=O)C(=C2C)C3(C)C)[C@@H](O)CC2OC[C@]24OC(C)=O)[C@@H](NC(=O)c2ccccc2)c2ccccc2)cc1 (stereo partly drawn) [Compound A1],inhibitory rate on tumor (Day 26),[1]; [9],95.6%
same,Activation ratio (%) in homogenates from different tumor tissues,"Human heart; acidized homogenate pH6.0, Paclitaxel release by HPLC",none
same,Inhibitory rate on metastasis,4T1 cells; [10],97.9%
same,Number of metastasized tumor,4T1 cells; [10],3 ± 4
same,"Inhibitory effect on tumor metastasis, in words",4T1 cells,greatly improved
same,solubility in Solvent 1,"[2]; solvent 1 (injectable water), Table 22, Paclitaxel series",insoluble
same,"Concentration achieved, completely dissolved in both solvent 1 and solvent 2","[2]; solvent 2 45% alcohol, 55% injectable water",10000 µg/mL
same,solubility in Solvent 2,"[2]; solvent 2 (45% alcohol, 55% injectable water), Table 22, Paclitaxel series",soluble
same,"Solubility in water, in words",[2]; water,can directly dissolve in water
same,"Activation efficiency by tumor tissue, in words",tumor tissue homogenates,highest activation efficiency among the screened compounds
same,Activation ratio (%) in homogenates from different tumor tissues,"[3]; 1 mg/ml, 100 μg acidized homogenate pH6.0, Paclitaxel release by HPLC",77.7%
same,inhibitory rate on tumor (Day 26),Human colon cancer HT-29; [9],87.5%
same,Size of tumor (mm^3) Day 10,"[4]; Table 26, A1-A4 24 mg/kg",85.16 ± 58.4 mm^3
same,inhibitory rate on tumor Day 10,"[4]; Table 26, A1-A4 24 mg/kg",71.1%
same,Size of tumor (mm^3) Day 24,"[4]; Table 26, A1-A4 24 mg/kg",89.78 ± 63.7 mm^3
same,inhibitory rate on tumor Day 24,"[4]; Table 26, A1-A4 24 mg/kg",76.4%
same,"Inhibition on tumor growth, in words",[4],greatly improved
same,inhibitory rate on tumor (Day 26),[5]; [9],89.2%
same,Behaviors and death observed,BALB/C mice,"no pilo-erection, hair tousle and lackluster, lethargy, stoop, irritable reaction and death"
same,MTD (maximum tolerated dose),BALB/C mice; BALB/C mice,about 90 mg/kg
same,Mortality rate (%),BALB/C mice; [11],0%
same,Number of dead animal,BALB/C mice; [11],0
same,Mortality rate (%),BALB/C mice; [12],0%
same,Number of dead animal,BALB/C mice; [12],0
same,Mortality rate (%),BALB/C mice; [13],0%
same,Number of dead animal,BALB/C mice; [13],0
same,Mortality rate (%),BALB/C mice; [14],0%
same,Number of dead animal,BALB/C mice; [14],0
same,inhibitory rate on tumor (Day 26),[6]; [9],95.3%
